Measured values taken from patent publication US12643880B2, “Heterobifunctional molecules as TEAD inhibitors” (Genentech, Inc., priority 2020, dated 2026).

Assays:
Assay type in all cases: binding
Settings in all cases: His-tagged TEAD protein, biotinylated lipid pocket probe
TEAD2 = TEAD2 (Homo sapiens, UniProt Q15562); assay: TEAD lipid pocket TR-FRET (Lipid HTRF) competition assay, TEAD2
Protocol: (§1) His-tagged TEAD proteins are pre-incubated with TEAD project compounds for 30 minutes at room temperature. Biotinylated lipid pocket probes are then added to the TEAD/Compound mixture and incubated for 60 minutes at room temperature. The lipid pocket probe competes with the test compound for the TEAD lipid pocket until equilibrium is reached. After 60 minutes, Europium labelled anti-His (Perkin Elmer #ADO 110) and XL665 labelled streptavidin (CIS Bio 610SAXAC) are added to the TEAD/test compound/lipid pocket mixture and incubated for 30 minutes. TR-FRET values are then measured using an EnVision multi-label plate reader (Perkin Elmer Cat #2104-1A.) If the lipid pocket probe binds to TEAD as expected, a TR-FRET signal results from the proximity of Tani-His Eu and XL665. If a TEAD lipid pocket binder such as binds and displaces the lipid pocket probe, the disruption of the TEAD:probe interaction results in a decrease in TR-FRET signal. The potency of compounds as TEAD lipid pocket binders is determined by IC50 value generated using a non-linear 4 parameter curve fit. This assay format enables more sensitive determinations of lipid pocket affinity than the aforementioned TEAD lipid pocket FP assay due to the decreased concentration of TEAD protein required for the TR-FRET assay format.

TEAD3 = TEAD3 (Homo sapiens, UniProt Q99594); assay: TEAD lipid pocket TR-FRET (Lipid HTRF) competition assay, TEAD3
Protocol: as §1

TEAD4 = TEAD4 (Homo sapiens, UniProt Q15561); assay: TEAD lipid pocket TR-FRET (Lipid HTRF) competition assay, TEAD4
Protocol: as §1

TEAD1 = TEAD1 (Homo sapiens, UniProt P28347); assay: TEAD lipid pocket TR-FRET (Lipid HTRF) competition assay, TEAD1
Protocol: as §1

Sequence of TEAD4 (Q15561 whole entry, species assumed): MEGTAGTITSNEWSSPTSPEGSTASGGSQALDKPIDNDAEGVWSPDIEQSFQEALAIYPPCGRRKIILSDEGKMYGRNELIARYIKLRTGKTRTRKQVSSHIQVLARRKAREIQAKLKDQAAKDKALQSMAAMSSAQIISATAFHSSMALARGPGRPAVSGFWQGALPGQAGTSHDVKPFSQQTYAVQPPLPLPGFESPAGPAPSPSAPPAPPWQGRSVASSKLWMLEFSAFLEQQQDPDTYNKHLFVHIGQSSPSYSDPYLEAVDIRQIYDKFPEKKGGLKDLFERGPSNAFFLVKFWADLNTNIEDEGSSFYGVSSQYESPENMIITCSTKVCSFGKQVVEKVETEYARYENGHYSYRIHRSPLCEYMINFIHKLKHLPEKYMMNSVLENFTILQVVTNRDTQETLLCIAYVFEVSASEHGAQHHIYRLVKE
Sequence of TEAD1 (P28347 whole entry, species assumed): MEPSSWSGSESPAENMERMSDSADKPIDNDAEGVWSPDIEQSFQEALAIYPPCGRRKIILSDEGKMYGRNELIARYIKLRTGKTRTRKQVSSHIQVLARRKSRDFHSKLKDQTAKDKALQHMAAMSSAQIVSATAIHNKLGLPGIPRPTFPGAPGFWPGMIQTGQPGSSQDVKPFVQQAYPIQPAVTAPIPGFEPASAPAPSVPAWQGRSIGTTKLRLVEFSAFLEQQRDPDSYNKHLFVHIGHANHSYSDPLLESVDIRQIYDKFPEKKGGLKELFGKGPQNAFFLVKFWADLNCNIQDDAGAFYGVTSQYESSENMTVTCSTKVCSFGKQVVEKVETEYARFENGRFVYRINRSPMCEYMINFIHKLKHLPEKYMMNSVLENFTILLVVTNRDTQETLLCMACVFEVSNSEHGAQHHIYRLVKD
Sequence of TEAD3 (Q99594 whole entry, species assumed): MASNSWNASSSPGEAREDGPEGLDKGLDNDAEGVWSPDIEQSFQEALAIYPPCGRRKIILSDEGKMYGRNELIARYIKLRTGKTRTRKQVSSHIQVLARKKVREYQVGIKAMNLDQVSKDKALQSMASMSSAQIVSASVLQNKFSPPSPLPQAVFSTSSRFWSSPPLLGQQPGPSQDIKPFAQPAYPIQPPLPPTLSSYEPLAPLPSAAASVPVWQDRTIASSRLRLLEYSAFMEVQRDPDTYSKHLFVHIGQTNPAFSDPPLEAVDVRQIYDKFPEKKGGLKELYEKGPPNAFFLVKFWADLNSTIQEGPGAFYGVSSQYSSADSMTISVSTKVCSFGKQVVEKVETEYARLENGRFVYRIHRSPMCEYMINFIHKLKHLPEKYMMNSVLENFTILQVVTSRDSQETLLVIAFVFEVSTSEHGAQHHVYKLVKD
Sequence of TEAD2 (Q15562 whole entry, species assumed): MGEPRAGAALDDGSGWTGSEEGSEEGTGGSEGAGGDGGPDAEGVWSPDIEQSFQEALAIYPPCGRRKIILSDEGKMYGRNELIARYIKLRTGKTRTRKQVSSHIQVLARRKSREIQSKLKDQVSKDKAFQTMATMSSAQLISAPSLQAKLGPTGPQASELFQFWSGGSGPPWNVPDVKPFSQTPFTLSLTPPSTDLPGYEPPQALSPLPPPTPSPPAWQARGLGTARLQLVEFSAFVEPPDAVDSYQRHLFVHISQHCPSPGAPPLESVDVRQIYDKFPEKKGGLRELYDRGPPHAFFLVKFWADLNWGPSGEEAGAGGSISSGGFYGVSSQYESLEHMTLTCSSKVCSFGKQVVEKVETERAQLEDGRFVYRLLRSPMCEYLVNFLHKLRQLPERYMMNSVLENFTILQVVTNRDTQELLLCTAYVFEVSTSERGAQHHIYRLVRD

Row | IC50 (TEAD2) [nM] | IC50 (TEAD3) [µM] | IC50 (TEAD4) [nM] | IC50 (TEAD1) [nM] | SMILES
1 | 230 | 6 | 90 | 650 | COc1cnc(C(=O)NCc2cccc(CC(=O)N(C)CCCCOc3ccc4c(c3)C(=O)N(C3CCC(=O)NC3=O)C4=O)c2)cc1/C=C/[C@H]1CC[C@H](C(F)(F)F)CC1 (stereo partly drawn) [Compound 1, N-(3-(2-((4-((2-(2,6-dioxopiperidin-3-yl)-1,3-dioxoisoindolin-5-yl)oxy)butyl)(methyl)amino)-2-oxoethyl)benzyl)-5-methoxy-4-((E)-2-(trans-4-(trifluoromethyl)cyclohexyl)vinyl)picolinamide]
2 | 1150 | 18.8 | 400 | 5750 | COc1cnc(C(=O)NCc2cccc(CC(=O)N(C)CCCCCCOc3ccc4c(c3)C(=O)N(C3CCC(=O)NC3=O)C4=O)c2)cc1/C=C/[C@H]1CC[C@H](C(F)(F)F)CC1 (stereo partly drawn) [Compound 2, N-(3-(2-((6-((2-(2,6-Dioxopiperidin-3-yl)-1,3-dioxoisoindolin-5-yl)oxy)hexyl)(methyl)amino)-2-oxoethyl)benzyl)-5-methoxy-4-((E)-2-(trans-4-(trifluoromethyl)cyclohexyl)vinyl)picolinamide]
3 | 130 | 4.8 | 60 | 300 | COc1cnc(C(=O)NCc2cccc(CC(=O)N(C)CCOCCOCCOCCOc3ccc4c(c3)C(=O)N(C3CCC(=O)NC3=O)C4=O)c2)cc1/C=C/[C@H]1CC[C@H](C(F)(F)F)CC1 (stereo partly drawn) [Compound 3, N-(3-(14-((2-(2,6-Dioxopiperidin-3-yl)-1,3-dioxoisoindolin-5-yl)oxy)-3-methyl-2-oxo-6,9,12-trioxa-3-azatetradecyl)benzyl)-5-methoxy-4-((E)-2-(trans-4-(trifluoromethyl)cyclohexyl)vinyl)picolinamide]
4 | 200 | 1.83 | 70 | 280 | COc1cnc(C(=O)NCc2cccc(CC(=O)N(C)CCOCCOCCOCCOCCOc3ccc4c(c3)C(=O)N(C3CCC(=O)NC3=O)C4=O)c2)cc1/C=C/[C@H]1CC[C@H](C(F)(F)F)CC1 (stereo partly drawn) [Compound 4, N-(3-(17-((2-(2,6-Dioxopiperidin-3-yl)-1,3-dioxoisoindolin-5-yl)oxy)-3-methyl-2-oxo-6,9,12,15-tetraoxa-3-azaheptadecyl)benzyl)-5-methoxy-4-((E)-2-(trans-4-(trifluoromethyl)cyclohexyl)vinyl)picolinamide]
5 | 180 | 4 | 110 | 510 | COc1cnc(C(=O)NCc2cccc(CC(=O)N(C)CCOCCOc3ccc4c(c3)C(=O)N(C3CCC(=O)NC3=O)C4=O)c2)cc1/C=C/[C@H]1CC[C@H](C(F)(F)F)CC1 (stereo partly drawn) [Compound 5, N-(3-(2-((2-(2-((2-(2,6-Dioxopiperidin-3-yl)-1,3-dioxoisoindolin-5-yl)oxy)ethoxy)ethyl)(methyl)amino)-2-oxoethyl)benzyl)-5-methoxy-4-((E)-2-(trans-4-(trifluoromethyl)cyclohexyl)vinyl)picolinamide]
6 | 180 | 30 | 70 | 1150 | COc1cnc(C(=O)NCc2cccc(CC(=O)N(C)CCOCCOCCOc3ccc4c(c3)C(=O)N(C3CCC(=O)NC3=O)C4=O)c2)cc1/C=C/[C@H]1CC[C@H](C(F)(F)F)CC1 (stereo partly drawn) [Compound 6, N-(3-(2-((2-(2-(2-((2-(2,6-Dioxopiperidin-3-yl)-1,3-dioxoisoindolin-5-yl)oxy)ethoxy)ethoxy)ethyl)(methyl)amino)-2-oxoethyl)benzyl)-5-methoxy-4-((E)-2-(trans-4-(trifluoromethyl)cyclohexyl)vinyl)picolinamide]
7 | 110 | 2 | 60 | 360 | COc1cnc(C(=O)NCc2cccc(CC(=O)N(C)CCOCCOCCOCCOCCOCCOc3ccc4c(c3)C(=O)N(C3CCC(=O)NC3=O)C4=O)c2)cc1/C=C/[C@H]1CC[C@H](C(F)(F)F)CC1 (stereo partly drawn) [Compound 7, N-(3-(20-((2-(2,6-Dioxopiperidin-3-yl)-1,3-dioxoisoindolin-5-yl)oxy)-3-methyl-2-oxo-6,9,12,15,18-pentaoxa-3-azaicosyl)benzyl)-5-methoxy-4-((E)-2-(trans-4-(trifluoromethyl)cyclohexyl)vinyl)picolinamide]
8 | 290 | 8.2 | 180 | 720 | COc1cnc(C(=O)NCc2cccc(CC(=O)N(C)CCCOc3ccc4c(c3)C(=O)N(C3CCC(=O)NC3=O)C4=O)c2)cc1/C=C/[C@H]1CC[C@H](C(F)(F)F)CC1 (stereo partly drawn) [Compound 8, N-(3-(2-((3-((2-(2,6-Dioxopiperidin-3-yl)-1,3-dioxoisoindolin-5-yl)oxy)propyl)(methyl)amino)-2-oxoethyl)benzyl)-5-methoxy-4-((E)-2-(trans-4-(trifluoromethyl)cyclohexyl)vinyl)picolinamide]
9 | 650 | 5.37 | 320 | 1300 | COc1cnc(C(=O)NCc2cccc(CC(=O)N(C)CCCCCCCOc3ccc4c(c3)C(=O)N(C3CCC(=O)NC3=O)C4=O)c2)cc1/C=C/[C@H]1CC[C@H](C(F)(F)F)CC1 (stereo partly drawn) [Compound 9, N-(3-(2-((7-((2-(2,6-Dioxopiperidin-3-yl)-1,3-dioxoisoindolin-5-yl)oxy)heptyl)(methyl)amino)-2-oxoethyl)benzyl)-5-methoxy-4-((E)-2-(trans-4-(trifluoromethyl)cyclohexyl)vinyl)picolinamide]
10 | 4800 | 50 | 470 | 18800 | COc1cnc(C(=O)NCc2cccc(CC(=O)N(C)CCCCCOc3ccc4c(c3)C(=O)N(C3CCC(=O)NC3=O)C4=O)c2)cc1/C=C/[C@H]1CC[C@H](C(F)(F)F)CC1 (stereo partly drawn) [Compound 10, N-(3-(2-((5-((2-(2,6-Dioxopiperidin-3-yl)-1,3-dioxoisoindolin-5-yl)oxy)pentyl)(methyl)amino)-2-oxoethyl)benzyl)-5-methoxy-4-((E)-2-(trans-4-(trifluoromethyl)cyclohexyl)vinyl)picolinamide]
11 | 370 | 2.53 | 170 | 700 | COc1cnc(C(=O)NCc2cccc(CC(=O)NCCCCC(=O)N[C@H](C(=O)N3C[C@H](O)C[C@H]3C(=O)NCc3ccc(-c4scnc4C)cc3)C(C)(C)C)c2)cc1/C=C/[C@H]1CC[C@H](C(F)(F)F)CC1 [Compound 11, N-(3-(2-((5-(((S)-1-((2S,4R)-4-Hydroxy-2-((4-(4-methylthiazol-5-yl)benzyl)carbamoyl)pyrrolidin-1-yl)-3,3-dimethyl-1-oxobutan-2-yl)amino)-5-oxopentyl)amino)-2-oxoethyl)benzyl)-5-methoxy-4-((E)-2-(trans-4-(trifluoromethyl)cyclohexyl)vinyl)picolinamide]
12 | 690 | 5.9 | 280 | 1320 | COc1cnc(C(=O)NCc2cccc(CC(=O)NCCCCCCC(=O)N[C@H](C(=O)N3C[C@H](O)C[C@H]3C(=O)NCc3ccc(-c4scnc4C)cc3)C(C)(C)C)c2)cc1/C=C/[C@H]1CC[C@H](C(F)(F)F)CC1 [Compound 12, N-(3-(2-((7-(((S)-1-((2S,4R)-4-Hydroxy-2-((4-(4-methylthiazol-5-yl)benzyl)carbamoyl)pyrrolidin-1-yl)-3,3-dimethyl-1-oxobutan-2-yl)amino)-7-oxoheptyl)amino)-2-oxoethyl)benzyl)-5-methoxy-4-((E)-2-(trans-4-(trifluoromethyl)cyclohexyl)vinyl)picolinamide]
13 | 460 | 4.03 | 220 | 980 | COc1cnc(C(=O)NCc2cccc(CC(=O)NCCCCCCCCC(=O)N[C@H](C(=O)N3C[C@H](O)C[C@H]3C(=O)NCc3ccc(-c4scnc4C)cc3)C(C)(C)C)c2)cc1/C=C/[C@H]1CC[C@H](C(F)(F)F)CC1 [Compound 13, N-(3-(2-((9-(((S)-1-((2S,4R)-4-Hydroxy-2-((4-(4-methylthiazol-5-yl)benzyl)carbamoyl)pyrrolidin-1-yl)-3,3-dimethyl-1-oxobutan-2-yl)amino)-9-oxononyl)amino)-2-oxoethyl)benzyl)-5-methoxy-4-((E)-2-(trans-4-(trifluoromethyl)cyclohexyl)vinyl)picolinamide]
14 | 410 | 3.83 | 170 | 720 | COc1cnc(C(=O)NCc2cccc(CC(=O)NCCOCCOCC(=O)N[C@H](C(=O)N3C[C@H](O)C[C@H]3C(=O)NCc3ccc(-c4scnc4C)cc3)C(C)(C)C)c2)cc1/C=C/[C@H]1CC[C@H](C(F)(F)F)CC1 [Compound 14, N-(3-((S)-13-((2S,4R)-4-Hydroxy-2-((4-(4-methylthiazol-5-yl)benzyl)carbamoyl)pyrrolidine-1-carbonyl)-14,14-dimethyl-2,11-dioxo-6,9-dioxa-3,12-diazapentadecyl)benzyl)-5-methoxy-4-((E)-2-(trans-4-(trifluoromethyl)cyclohexyl)vinyl)picolinamide]
